According to the SangsterLogP compilation:

Nc1nc(Br)nc2c1ncn2C1CC(O)C(CO)O1 (stereo not given) showed a logP of 0.41. For Nc1nc(Cl)nc2c1cnn2[C@H]1C[C@H](O)[C@@H](CO)O1, the logP was 0.38. Nc1nc(Cl)nc2c1ccn2[C@H]1C[C@H](O)[C@@H](CO)O1 showed a logP of 0.38. For CNc1nc(Cl)nc2c1ncn2[C@H]1C[C@H](O)[C@@H](CO)O1, the logP was 0.91. In the case of OCC1OC(n2cnc3c(NCc4ccccc4)nc(Cl)nc32)CC1O (stereo not given), the logP is reported as 2.48. OC[C@H]1O[C@@H](n2nc3ccccc3n2)C[C@@H]1O gave a logP of 1.06. For OCC1OC(n2cnc3c(NC4CCCCC4)nc(Cl)nc32)CC1O (stereo not given), the logP was 3. Compound Nc1nc(Cl)nc2c1nc(Br)n2C1CC(O)C(CO)O1 (stereo not given) has a logP of 0.9. For Nc1ncnc2ncn([C@H]3C[C@H](O)[C@@H](CO)O3)c12, the logP was -0.01. OC[C@H]1O[C@@H](n2cnc3ccccc32)C[C@@H]1O showed a logP of 0.69. For OC[C@H]1O[C@@H](n2nnc3ccccc32)C[C@@H]1O, the logP was 0.55. Compound Nc1nc(Cl)nc2nc[nH]c12 has a logP of 0.35. Compound CCn1cnc2c(N)nc(Cl)nc21 has a logP of 1.16. For Nc1ncnc2c1ncn2[C@H]1C[C@H](O)[C@@H](CO)O1, the logP was -0.68. With OCCNc1nc(Cl)nc2c1ncn2[C@H]1C[C@@H](O)[C@@H](CO)O1 the logP was 0.47.
